# Columns and labels:
# Bacillus subtilis [1] = experiment: Antimicrobial activity against Bacillus subtilis MTCC 121 after 24 hrs by well diffusion method; format: functional; conditions: MTCC 121, 24 h
# Staphylococcus aureus [2] = experiment: Antimicrobial activity against Staphylococcus aureus MTCC 96 after 24 hrs by well diffusion method; format: functional; conditions: MTCC 96, 24 h
# Raoultella planticola [3] = experiment: Antibiofilm activity against Klebsiella planticola MTCC 530 after 24 hrs by crystal violet staining based assay; format: functional, organism-based; conditions: MTCC 530, 24 h
# Bacillus subtilis [4] = experiment: Bactericidal activity against Bacillus subtilis MTCC 121 after 24 hrs by serial dilution method; format: functional; conditions: MTCC 121, 24 h
# Escherichia coli = experiment: Antimicrobial activity against Escherichia coli MTCC 739 after 24 hrs by well diffusion method; format: functional; conditions: MTCC 739, 24 h
# Pseudomonas aeruginosa = experiment: Antimicrobial activity against Pseudomonas aeruginosa MTCC 2453 after 24 hrs by well diffusion method; format: functional; conditions: MTCC 2453, 24 h
# Raoultella planticola [5] = experiment: Antimicrobial activity against Klebsiella planticola MTCC 530 after 24 hrs by well diffusion method; format: functional; conditions: MTCC 530, 24 h
# Raoultella planticola [6] = experiment: Bactericidal activity against Klebsiella planticola MTCC 530 after 24 hrs by serial dilution method; format: functional; conditions: MTCC 530, 24 h
# Bacillus subtilis [7] = experiment: Antibiofilm activity against Bacillus subtilis MTCC 121 after 24 hrs by crystal violet staining based assay; format: functional, organism-based; conditions: MTCC 121, 24 h
# Staphylococcus aureus [8] = experiment: Antimicrobial activity against Staphylococcus aureus MLS16 MTCC 2940 after 24 hrs by well diffusion method; format: functional; conditions: MLS16 MTCC 2940, 24 h
# Micrococcus luteus [9] = experiment: Bactericidal activity against Micrococcus luteus MTCC 2470 after 24 hrs by serial dilution method; format: functional; conditions: MTCC 2470, 24 h
# Staphylococcus aureus [10] = experiment: Antibiofilm activity against Staphylococcus aureus MLS16 MTCC 2940 after 24 hrs by crystal violet staining based assay; format: functional, organism-based; conditions: MLS16 MTCC 2940, 24 h
# Micrococcus luteus [11] = experiment: Antimicrobial activity against Micrococcus luteus MTCC 2470 after 24 hrs by well diffusion method; format: functional; conditions: MTCC 2470, 24 h
# Staphylococcus aureus [12] = experiment: Bactericidal activity against Staphylococcus aureus MLS16 MTCC 2940 after 24 hrs by serial dilution method; format: functional; conditions: MLS16 MTCC 2940, 24 h
# A549 [13] = experiment: Selectivity ratio of IC50 for human PC3 cells to IC50 for human A549 cells; format: functional
# Staphylococcus aureus [14] = experiment: Bactericidal activity against Staphylococcus aureus MTCC 96 after 24 hrs by serial dilution method; format: functional; conditions: MTCC 96, 24 h
# Staphylococcus aureus [15] = experiment: Antibiofilm activity against Staphylococcus aureus MTCC 96 after 24 hrs by crystal violet staining based assay; format: functional, organism-based; conditions: MTCC 96, 24 h
# Micrococcus luteus [16] = experiment: Antibiofilm activity against Micrococcus luteus MTCC 2470 after 24 hrs by crystal violet staining based assay; format: functional, organism-based; conditions: MTCC 2470, 24 h
# Candida albicans [17] = experiment: Antimicrobial activity against Candida albicans MTCC 3017 after 24 hrs by well diffusion method; format: functional; conditions: MTCC 3017, 24 h
# A549 [18] = experiment: Cytotoxicity against human A549 cells after 72 hrs by XTT assay; format: functional, cell-based; conditions: A549, 72 h
# [19] = Cytotoxicity against human PC3 cells after 72 hrs by XTT assay; format: functional, cell-based; conditions: PC-3, 72 h
# A549 [20] = experiment: Selectivity ratio of IC50 for human A549 cells to IC50 for human PC3 cells; format: functional
# Candida albicans [21] = experiment: Antimicrobial activity against Candida albicans MTCC 854 after 24 hrs by well diffusion method; format: functional; conditions: MTCC 854, 24 h
# Candida albicans [22] = experiment: Antimicrobial activity against Candida albicans MTCC 3018 after 24 hrs by well diffusion method; format: functional; conditions: MTCC 3018, 24 h
# Pichia sporocuriosa [23] = experiment: Antimicrobial activity against Issatchenkia hanoiensis MTCC 4755 after 24 hrs by well diffusion method; format: functional; conditions: MTCC 4755, 24 h
# Candida albicans [24] = experiment: Antimicrobial activity against Candida albicans MTCC 1637 after 24 hrs by well diffusion method; format: functional; conditions: MTCC 1637, 24 h
# Candida albicans [25] = experiment: Fungicidal activity against Candida albicans MTCC 7315 after 24 hrs by serial dilution method; format: functional; conditions: MTCC 7315, 24 h
# Candida albicans [26] = experiment: Fungicidal activity against Candida albicans MTCC 183 after 24 hrs by serial dilution method; format: functional; conditions: MTCC 183, 24 h
# Pichia kudriavzevii [27] = experiment: Fungicidal activity against Candida krusei MTCC 3020 after 24 hrs by serial dilution method; format: functional; conditions: MTCC 3020, 24 h
# Candida albicans [28] = experiment: Antimicrobial activity against Candida albicans MTCC 7315 after 24 hrs by well diffusion method; format: functional; conditions: MTCC 7315, 24 h
# Candida albicans [29] = experiment: Fungicidal activity against Candida albicans MTCC 4748 after 24 hrs by serial dilution method; format: functional; conditions: MTCC 4748, 24 h
# Candida albicans [30] = experiment: Fungicidal activity against Candida albicans MTCC 3018 after 24 hrs by serial dilution method; format: functional; conditions: MTCC 3018, 24 h
# Candida albicans [31] = experiment: Fungicidal activity against Candida albicans MTCC 854 after 24 hrs by serial dilution method; format: functional; conditions: MTCC 854, 24 h
# Nakaseomyces glabratus [32] = experiment: Antimicrobial activity against Candida glabrata MTCC 3019 after 24 hrs by well diffusion method; format: functional; conditions: MTCC 3019, 24 h
# Candida albicans [33] = experiment: Fungicidal activity against Candida albicans MTCC 227 after 24 hrs by serial dilution method; format: functional; conditions: MTCC 227, 24 h
# Candida albicans [34] = experiment: Antimicrobial activity against Candida albicans MTCC 183 after 24 hrs by well diffusion method; format: functional; conditions: MTCC 183, 24 h
# Candida albicans [35] = experiment: Fungicidal activity against Candida albicans MTCC 1637 after 24 hrs by serial dilution method; format: functional; conditions: MTCC 1637, 24 h
# Nakaseomyces glabratus [36] = experiment: Fungicidal activity against Candida glabrata MTCC 3019 after 24 hrs by serial dilution method; format: functional; conditions: MTCC 3019, 24 h
# Candida parapsilosis [37] = experiment: Fungicidal activity against Candida parapsilosis MTCC 1744 after 24 hrs by serial dilution method; format: functional; conditions: Lodderomyces parapsilosis, MTCC 1744, 24 h
# Pichia kudriavzevii [38] = experiment: Antimicrobial activity against Candida krusei MTCC 3020 after 24 hrs by well diffusion method; format: functional; conditions: MTCC 3020, 24 h
# Candida albicans [39] = experiment: Antimicrobial activity against Candida albicans MTCC 3958 after 24 hrs by well diffusion method; format: functional; conditions: MTCC 3958, 24 h
# Candida albicans [40] = experiment: Antimicrobial activity against Candida albicans MTCC 227 after 24 hrs by well diffusion method; format: functional; conditions: MTCC 227, 24 h
# [Candida] aaseri [41] = Antimicrobial activity against Candida aaseri MTCC 1962 after 24 hrs by well diffusion method; format: functional; conditions: Yamadazyma aaseri, MTCC 1962, 24 h
# Candida albicans [42] = experiment: Fungicidal activity against Candida albicans MTCC 3958 after 24 hrs by serial dilution method; format: functional; conditions: MTCC 3958, 24 h
# Candida albicans [43] = experiment: Antimicrobial activity against Candida albicans MTCC 4748 after 24 hrs by well diffusion method; format: functional; conditions: MTCC 4748, 24 h
# [Candida] aaseri [44] = Fungicidal activity against Candida aaseri MTCC 1962 after 24 hrs by serial dilution method; format: functional; conditions: Yamadazyma aaseri, MTCC 1962, 24 h
# Candida parapsilosis [45] = experiment: Antimicrobial activity against Candida parapsilosis MTCC 1744 after 24 hrs by well diffusion method; format: functional; conditions: Lodderomyces parapsilosis, MTCC 1744, 24 h
# Pichia sporocuriosa [46] = experiment: Fungicidal activity against Issatchenkia hanoiensis MTCC 4755 after 24 hrs by serial dilution method; format: functional; conditions: MTCC 4755, 24 h
# Candida albicans [47] = experiment: Fungicidal activity against Candida albicans MTCC 3017 after 24 hrs by serial dilution method; format: functional; conditions: MTCC 3017, 24 h
smiles,measurement,setting,value
O=C1C=C(N2CC2)C(=O)C(c2cc(-c3ccc(C(=O)N4CCCCC4)s3)on2)=C1N1CC1,MIC,Bacillus subtilis [1],3.9 µg/mL
same,MIC,Staphylococcus aureus [2],15.6 µg/mL
same,IC50,Raoultella planticola [3],5.4 µM
same,MBC,Bacillus subtilis [4],15.6 µg/mL
same,MIC,Escherichia coli,> 125 µg/mL
same,MIC,Pseudomonas aeruginosa,> 125 µg/mL
same,MIC,Raoultella planticola [5],7.8 µg/mL
same,MBC,Raoultella planticola [6],15.6 µg/mL
same,IC50,Bacillus subtilis [7],2.8 µM
same,MIC,Staphylococcus aureus [8],15.6 µg/mL
same,MBC,Micrococcus luteus [9],125 µg/mL
same,IC50,Staphylococcus aureus [10],9.8 µM
same,MIC,Micrococcus luteus [11],62.5 µg/mL
same,MBC,Staphylococcus aureus [12],62.5 µg/mL
same,Ratio IC50,A549 [13],12
same,MBC,Staphylococcus aureus [14],31.2 µg/mL
same,IC50,Staphylococcus aureus [15],11.2 µM
same,IC50,Micrococcus luteus [16],35.6 µM
same,MIC,Candida albicans [17],15.6 µg/mL
same,IC50,A549 [18],1.7 µM
same,IC50,[19],21.3 µM
CN(Cc1ccc(F)cc1)C(=O)c1ccc(-c2cc(C3=C(N4CC4)C(=O)C=C(N4CC4)C3=O)no2)s1,MIC,Bacillus subtilis [1],15.6 µg/mL
same,MIC,Staphylococcus aureus [2],62.5 µg/mL
same,MBC,Bacillus subtilis [4],62.5 µg/mL
same,MIC,Escherichia coli,> 125 µg/mL
same,MIC,Pseudomonas aeruginosa,> 125 µg/mL
same,MIC,Raoultella planticola [5],> 125 µg/mL
same,MBC,Raoultella planticola [6],> 125 µg/mL
same,MIC,Staphylococcus aureus [8],31.2 µg/mL
same,MBC,Micrococcus luteus [9],> 125 µg/mL
same,MIC,Micrococcus luteus [11],31.2 µg/mL
same,MBC,Staphylococcus aureus [12],> 125 µg/mL
same,MBC,Staphylococcus aureus [14],> 125 µg/mL
same,Ratio IC50,A549 [20],30
same,MIC,Candida albicans [17],> 125 µg/mL
same,IC50,A549 [18],15.3 µM
same,IC50,[19],0.5 µM
CCCN(C)C(=O)c1ccc(-c2cc(C3=C(N4CC4)C(=O)C=C(N4CC4)C3=O)no2)s1,MIC,Candida albicans [21],62.5 µg/mL
same,MIC,Bacillus subtilis [1],3.9 µg/mL
same,MIC,Staphylococcus aureus [2],7.8 µg/mL
same,IC50,Raoultella planticola [3],3.5 µM
same,MIC,Candida albicans [22],31.2 µg/mL
same,MBC,Bacillus subtilis [4],7.8 µg/mL
same,MIC,Pichia sporocuriosa [23],15.6 µg/mL
same,MIC,Candida albicans [24],62.5 µg/mL
same,MIC,Escherichia coli,> 125 µg/mL
same,MFC,Candida albicans [25],31.2 µg/mL
same,MFC,Candida albicans [26],62.5 µg/mL
same,MFC,Pichia kudriavzevii [27],31.2 µg/mL
same,MIC,Candida albicans [28],15.6 µg/mL
same,MFC,Candida albicans [29],62.5 µg/mL
same,MFC,Candida albicans [30],125 µg/mL
same,MFC,Candida albicans [31],125 µg/mL
same,MIC,Pseudomonas aeruginosa,> 125 µg/mL
same,MIC,Nakaseomyces glabratus [32],15.6 µg/mL
same,MFC,Candida albicans [33],125 µg/mL
same,MIC,Candida albicans [34],31.2 µg/mL
same,MFC,Candida albicans [35],125 µg/mL
same,MFC,Nakaseomyces glabratus [36],31.2 µg/mL
same,MIC,Raoultella planticola [5],7.8 µg/mL
same,MBC,Raoultella planticola [6],15.6 µg/mL
same,MFC,Candida parapsilosis [37],31.2 µg/mL
same,IC50,Bacillus subtilis [7],2.2 µM
same,MIC,Pichia kudriavzevii [38],15.6 µg/mL
same,MIC,Staphylococcus aureus [8],15.6 µg/mL
same,MBC,Micrococcus luteus [9],31.2 µg/mL
same,MIC,Candida albicans [39],62.5 µg/mL
same,MIC,Candida albicans [40],62.5 µg/mL
same,IC50,Staphylococcus aureus [10],10.6 µM
same,MIC,[Candida] aaseri [41],7.8 µg/mL
same,MIC,Micrococcus luteus [11],15.6 µg/mL
same,MFC,Candida albicans [42],125 µg/mL
same,MIC,Candida albicans [43],31.2 µg/mL
same,MFC,[Candida] aaseri [44],15.6 µg/mL
same,MBC,Staphylococcus aureus [12],31.2 µg/mL
same,MBC,Staphylococcus aureus [14],15.6 µg/mL
same,MIC,Candida parapsilosis [45],15.6 µg/mL
same,IC50,Staphylococcus aureus [15],4.6 µM
same,IC50,Micrococcus luteus [16],8.9 µM
same,MFC,Pichia sporocuriosa [46],62.5 µg/mL
same,MFC,Candida albicans [47],31.2 µg/mL
same,MIC,Candida albicans [17],7.8 µg/mL
same,IC50,A549 [18],2.7 µM
same,IC50,[19],0.6 µM

# Source: ChEMBL document CHEMBL3808371, “Design, synthesis and biological evaluation of diaziridinyl quinone isoxazole hybrids” (Eur J Med Chem, 2016)
